In US12441767B2 (priority 2020, dated 2025):
Entries after “also recorded” stand apart in the source; their conditions may differ. Like-named read-outs stand apart in the source and are kept apart here. Ends that are not written are not given here.

How the values were obtained:
[1] = as reported in the literature; cited from earlier work
OCT4, SOX2 and NANOG = assay: qPCR of self-renewal markers in human ES cells after five passages; type: cell-based; conditions: for expression levels of SOX2 and NANOG: one-way ANOVA ***p<0.001
From the text: The self-renewal markers of the human ES cells were detected by using a quantitative polymerase chain reaction (qPCR) method.
The differential expressions of mRNAs of OCT4, SOX2 and NANOG were detected under the culture conditions of the above eight different culture media. Please refer to FIG. 2b for the detection results.
The self-renewal markers of the human ES cells were detected by using qPCR assay.
The differential expressions of mRNAs of OCT4, SOX2 and NANOG were detected under 12 different conditions. Please refer to FIG. 3b for the detection results (in the figure, the samples from left to right were E6, E6+P13, E6+M6, E6+TGFβ1, E6+TGFβ1+P13, E6+TGFβ1+M6, E6+FGF2, E6+FGF2+P13, E6+FGF2+M6, E8, E8+P13 and E8+M6).

p-Smad2 = type: cell-based, human
p-Erk1/2 = type: cell-based, human
human ES cells [2] = assay: Survival / proliferation of human ES cells (cell number by flow cytometry); type: cell-based; conditions: E8 culture medium + peptide vs E8 culture medium; 24 h; P13 final concentration 200 μM; one-way ANOVA
human ES cells [3] = assay: Cell-penetrating ability of FITC-labeled peptides, confocal microscopy; type: cell-based; conditions: 24 h
Experimental: The human ES cells were treated with FITC-labeled P13 and M6 for 24 h, respectively, and the positions of the peptides were confirmed under a confocal microscope by immunostaining with nuclear dye combined with cytoplasmic membrane dye.
Immunostaining of human ES cells treated with the fluorescently labeled P13/M6: Human ES cells were cultured on a sterile cover slide, and a 12-well plate was coated with matrix gel at a concentration of 1 mg/ml for 1-2 h. After 24 h, the cells were washed with a DMEM-F12 culture medium, the E8 culture medium was used for replacement, and the cells were treated with the fluorescently labeled peptide for 24 h. Then, the cell membranes were stained by using the CellMask™ crimson plasma membrane (Thermo Fisher), and incubation was performed at 37° C. for 10 min. The staining solution was removed, 200 μL of 4.0% formaldehyde was added to the culture medium, and incubation was performed at 37° C. for 10 min. The culture medium was then removed. The cells were washed with 1×PBS three times and incubated with 10 μl of DAPI (a DNA staining agent) and a mounting medium for one minute, and the cover slide was mounted and sealed with nail polish to prevent drying. The samples were imaged with a Carl Zeiss confocal LSM710 microscope.

human ES cells [4] = assay: Morphology (colony formation) of human ES cells after five serial passages; type: cell-based
Experimental: Two groups were prepared, with four different culture media (E6, E6+TGFβ1, E6+FGF2 and E8) in each group, and the peptide P13 was added to the 4 culture media in group 1. A total of eight different culture media were prepared.
The human ES cells were serially passaged five times under eight different conditions to detect the differences of morphologies and pluripotency markers. Please refer to FIG. 2a for the morphological difference results observed after five passages.
On the basis of the preliminary results, three groups were prepared, with four different culture media (E6, E6+TGFβ1, E6+FGF2 and E8) in each group, the peptide M6 was added to the four culture media in group 1, respectively, and the P13 was added in another group as the control. In this way, a total of twelve different culture media were prepared.
The human ES cells were serially passaged five times under 12 different conditions to detect the differences of morphologies and pluripotency markers. Please refer to FIG. 3a for the morphological difference results obtained after five passages (in the figure, the samples from left to right were E6, E6+P13, E6+TGFβ1, E6+TGFβ1+P13, E6+FGF2, E6+FGF2+P13, E8 and E8+P13).

[5] = E6 culture medium + peptide vs E6 control culture medium

## N=C(N)NCCC[C@H](N)C(=O)O [arginine]
[1]
  heparin-binding affinity relative to lysine: 2.5 times

## Gonearrestide (WCYKLPDRVSIKEKGRCN-NH2; cysteine pairing not given here) [P13]
OCT4, SOX2 and NANOG; E6 + peptide in comparison with other conditions, five passages
  mRNA expression levels of OCT4, SOX2 and NANOG: low mRNA expression levels
OCT4, SOX2 and NANOG; E6+FGF2 + peptide vs E6
  expression levels of SOX2 and NANOG: significantly up-regulated
OCT4, SOX2 and NANOG; E6+TGFβ1 + peptide vs E6+TGFβ1
  mRNA expression of OCT4, SOX2 and NANOG: up-regulated
OCT4, SOX2 and NANOG; E8 + peptide vs E6
  expression levels of SOX2 and NANOG: significantly up-regulated
p-Smad2; [5]
  expression level of p-Smad2: significantly up-regulated
p-Smad2; E6 with P13 and/or TGFβ1 vs E6+FGF2
  expression level of p-Smad2: up-regulated
p-Smad2; E8 with P13 vs E8
  expression level of p-Smad2: up-regulated
p-Erk1/2; [5]
  expression level of p-Erk1/2: significantly up-regulated
p-Erk1/2; E6 with P13 and/or FGF2 vs E6+TGFβ1
  expression level of p-Erk1/2: up-regulated
p-Erk1/2; E8 with P13 vs E8
  expression level of p-Erk1/2: not significantly up-regulated
Human ES cells [2]
  number of human ES cells that survived: significantly higher
Human ES cells [3]; E8, confocal microscope
  position of FITC-labeled peptide in human ES cells: bound to the plasma membranes
Human ES cells [3]; none found in cytoplasm
  cell-penetrating peptide (CPP) property: did not belong to the CPP family
Human ES cells [4]; E6+TGFβ + peptide, after five passages, vs E6+TGFβ
  colony-forming morphology of human ES cells: still maintained their colony morphologies; also recorded: maintained their colony-forming morphologies; also recorded: mixed state of colonies and dispersed cells
Human ES cells [4]; peptide added to E6+FGF2, five generations
  morphology of human ES cells: no significant morphological differences; also recorded: no significant difference in their morphologies
Human ES cells [4]; peptide added to E8, five generations
  morphology of human ES cells: no significant morphological differences; also recorded: no significant difference in their morphologies

## FGF2: growth factor component of the E8 culture medium, 16.4 kDa
p-Erk1/2; growth factor in E6 culture medium (FIG. 5d lanes 1-2)
  p-Erk1/2 expression: up-regulated

## TGFβ1: growth factor component of the E8 culture medium, 25.6 kDa homodimer linked by a disulfide bond
p-Smad2; E6 with 1.0 μmol LDN189193 treated with TGFβ or M6 vs E6 with 1.0 μmol LDN189193
  p-Smad2 expression: up-regulated
p-Smad2; growth factor in E6 culture medium (FIG. 5d lanes 3-4)
  p-Smad2 expression: up-regulated
p-Erk1/2; E6 with M6 or TGFβ in presence of SB431542 (10 μmol) / A8301 (1.0 μmol)
  p-Erk1/2 expression: not observed
